Consider 2 compounds from article PMC7997166, “In Silico Plasma Protein Binding Studies of Selected Group of Drugs Using TLC and HPLC Retention Data” (Pharmaceuticals, 2021).

One data set has as its target bovine serum albumin (Bos taurus, UniProt P02769). Kind of data set: NP TLC on BSA-impregnated silica gel plates (retardation factor Rf). It is filed as binding. Particulars: silica gel 60 F254 impregnated with BSA, mobile phase acetonitrile:acetate buffer pH 7.4:methanol 60:20:20, λ = 240 nm.
Data set [1] in a line: NP TLC on control silica gel plates without protein modifier (Rf). Type of data set: physicochemical. The conditions noted are these: silica gel 60 F254 without BSA (control), mobile phase acetonitrile:acetate buffer pH 7.4:methanol 60:20:20, λ = 240 nm. On the procedure:
TLC was performed in normal and reversed phase (NP and RP) systems. Aluminum plates with silica gel (Merck, TLC Silica gel 60 F254) were used in the NP system and aluminum plates with silanized silica gel—RP (Merck, TLC Silica gel 60 RP-2 F254, silanized) were used in the RP system. The stationary phase surface modifying protein was bovine serum albumin. A 2-mg/mL solution of BSA (Sigma Aldrich, Bovine serum albumin lyophilised powder) in distilled water was applied on the surface using Desaga Sprayer SG 1 and air-dried.
Drug solutions in methanol (1 mg/mL) were applied on the plates with the Desaga HPTLC-Applicator AS 30, then the plates were developed in the mobile phase composed of acetonitrile, acetate buffer pH 7.4 and methanol, 60:20:20 (v/v/v). All solvents used—water, methanol and acetonitrile—were purchased from J.T. Baker (HPLC Gradient Grade). The acetate buffer (20mM) was prepared by dissolving 1.54 g of ammonium acetate in 1 L of distilled water. The pH was then adjusted with concentrated ammonia solution.
The mobility of the compounds was initially determined on NP and RP plates without the participation of the protein modifier. These were labeled as controls (C). The obtained retardation factor (Rf) values could be used to determine the composition of the mobile phase, as well as the specific effect of the protein modifier on the mobility of the APIs. […]

The target of a further data set is human serum albumin (Homo sapiens, UniProt P02768). Kind of data set: HPLC on column with immobilized human serum albumin (CHIRALPAK HSA). The conditions noted are these: mobile phase acetate buffer pH 7.4:acetonitrile:methanol 85:10:5; flow 0.9 mL/min; 25 degrees Celsius; void time marker methanol t = 1.63. It is filed as binding.
human serum albumin, sequence (P02768 25-609): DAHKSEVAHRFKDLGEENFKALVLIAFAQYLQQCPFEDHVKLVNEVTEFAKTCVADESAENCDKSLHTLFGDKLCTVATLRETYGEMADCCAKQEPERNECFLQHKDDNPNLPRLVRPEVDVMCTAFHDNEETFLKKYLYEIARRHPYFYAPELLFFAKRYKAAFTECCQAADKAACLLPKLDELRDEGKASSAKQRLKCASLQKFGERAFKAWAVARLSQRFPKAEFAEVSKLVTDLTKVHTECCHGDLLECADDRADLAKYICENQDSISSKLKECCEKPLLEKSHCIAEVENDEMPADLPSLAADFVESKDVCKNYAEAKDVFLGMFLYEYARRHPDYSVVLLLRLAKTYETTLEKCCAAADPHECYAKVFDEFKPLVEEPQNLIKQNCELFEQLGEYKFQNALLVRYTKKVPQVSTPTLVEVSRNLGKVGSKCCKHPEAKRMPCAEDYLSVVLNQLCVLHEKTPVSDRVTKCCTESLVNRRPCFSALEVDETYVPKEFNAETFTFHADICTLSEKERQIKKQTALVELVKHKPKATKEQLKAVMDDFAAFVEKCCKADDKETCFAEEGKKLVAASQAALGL

bovine serum albumin, sequence (P02769 25-607): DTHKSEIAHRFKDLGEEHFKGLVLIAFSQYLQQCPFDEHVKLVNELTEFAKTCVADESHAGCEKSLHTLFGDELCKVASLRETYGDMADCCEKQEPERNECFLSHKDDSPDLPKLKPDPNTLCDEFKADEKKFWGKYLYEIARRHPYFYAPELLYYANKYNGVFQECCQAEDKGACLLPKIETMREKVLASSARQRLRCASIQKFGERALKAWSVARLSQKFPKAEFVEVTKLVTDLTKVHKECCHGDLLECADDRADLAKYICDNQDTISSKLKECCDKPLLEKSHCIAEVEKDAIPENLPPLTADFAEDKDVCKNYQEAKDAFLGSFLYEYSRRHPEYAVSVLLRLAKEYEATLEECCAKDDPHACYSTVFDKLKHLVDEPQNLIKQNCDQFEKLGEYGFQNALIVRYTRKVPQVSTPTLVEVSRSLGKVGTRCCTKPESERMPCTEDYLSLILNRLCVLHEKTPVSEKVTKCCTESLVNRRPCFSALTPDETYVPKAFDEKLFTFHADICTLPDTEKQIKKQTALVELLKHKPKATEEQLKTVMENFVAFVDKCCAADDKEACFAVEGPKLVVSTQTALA
Procedure for human serum albumin: HPLC analysis was performed on a Perkin Elmer Series 200 apparatus with a UV-VIS spectrometer for detection with an analytical wavelength of 210 nm. The mobile phase consisted of an acetate buffer with pH 7.4:acetonitrile:methanol, 85:10:5 (v/v/v). All solvents used—water, methanol and acetonitrile—were purchased from J.T. Baker (HPLC gradient class). The acetate buffer (10 mM) was prepared by dissolving 0.77 g of ammonium acetate in 1 L of distilled water. The pH was then adjusted with a concentrated ammonia solution.
API solutions in methanol (1 mg/mL, volume of injection: 10 μL) were injected into the HSA column using an automatic autosampler. The flow rate of the mobile phase was 0.9 mL/min. Since the column could not be thermostated, the room temperature was kept constant at 25 degrees Celsius by air conditioning. Chromatographic data (retention factor k and derivative: log k) were obtained for 129 APIs using the TotalChrom software connected to HPLC. Factor k, which is the ratio between the amount of analyte in the stationary phase to the amount in the mobile phase, was obtained from the equation k = (tR − tM)/tM where tR is retention time and tM is void time. The experiment was then repeated, and the collected retention factors (k) were means values from both series.

For `CN(C)CCC=C1c2ccccc2COc2ccccc21` [doxepin], the “Rf, BSA-impregnated NP plate” value at bovine serum albumin stood at 0.31. Moreover, the “Rf, control NP plate” value in data set [1] amounted to 0.34.
`CC(C)c1nc(N(C)S(C)(=O)=O)nc(-c2ccc(F)cc2)c1/C=C/[C@@H](O)C[C@@H](O)CC(=O)O` [rosuvastatin]: the “retention time (t) on HPLC column with immobilized HSA” value at human serum albumin is 3.71.
